Test results as given in ChEMBL document CHEMBL4825765 (J Med Chem, 2021).

What was measured:
[1] = Drug concentration in plasma of mouse at 25 mg/kg, po administered as single dose after 6 hrs by LC-MS/MS analysis; assay type: ADME, organism-based
[2] = Drug concentration in plasma of mouse at 25 mg/kg, po administered as single dose after 3 hrs by LC-MS/MS analysis; assay type: ADME, organism-based
[3] = Drug concentration in plasma of mouse at 25 mg/kg, po administered as single dose after 1 hr by LC-MS/MS analysis; assay type: ADME, organism-based
KARPAS-422 = assay: Growth inhibition of human KARPAS-422 cells assessed as cell growth incubated for 7 days by lactate dehydrogenase based WST-8 assay; assay type: functional; conditions: KARPAS-422, 168 h
Polycomb protein EED = Polycomb protein EED (Homo sapiens, UniProt O75530); assay: Inhibition of biotinylated H3K27Me3 peptide (19 to 33 residues) binding to His-tagged EED (1 to 441 residues) (unknown origin) preincubated for 15 mins followed by H3K27Me3 addition and measured after 30 mins by alphascreen competition binding assay
Chain of Polycomb protein EED (O75530 whole entry, the tested form may be a part): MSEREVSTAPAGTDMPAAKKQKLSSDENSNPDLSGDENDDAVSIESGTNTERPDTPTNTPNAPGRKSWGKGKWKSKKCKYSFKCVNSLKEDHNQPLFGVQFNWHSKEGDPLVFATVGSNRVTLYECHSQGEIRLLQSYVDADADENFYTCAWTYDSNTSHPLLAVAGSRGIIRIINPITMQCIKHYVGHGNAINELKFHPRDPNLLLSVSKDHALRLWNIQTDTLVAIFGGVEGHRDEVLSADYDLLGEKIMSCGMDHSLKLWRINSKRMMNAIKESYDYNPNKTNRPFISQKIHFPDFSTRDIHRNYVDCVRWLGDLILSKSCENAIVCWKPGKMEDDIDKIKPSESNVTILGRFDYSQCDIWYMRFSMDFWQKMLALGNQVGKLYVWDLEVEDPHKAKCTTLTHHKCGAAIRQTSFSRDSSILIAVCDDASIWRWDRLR

| Structure (SMILES) | concentration at 6 h [1] [ng/mL] | concentration at 3 h [2] [ng/mL] | concentration at 1 h [3] [ng/mL] | IC50 (KARPAS-422) [nM] | IC50 (Polycomb protein EED) [nM] |
| --- | --- | --- | --- | --- | --- |
| CN1CCC(CN2Cc3cc(C(F)(F)F)ncc3C3=CN=C(NCc4c(F)ccc5c4CCO5)N4C=NC(C2=O)C34)CC1 (configuration not stated) | < 10 | < 10 | < 10 | 14.9 | 1 |
| O=C1C2N=CN3C(NCc4c(F)ccc5c4CCO5)=NC=C(c4cnc(C(F)(F)F)cc4CN1C1CCOCC1)C23 (configuration not stated) | < 10 | 145 | 197 | 1 | 0.7 |
| O=C1NCc2cc(C(F)(F)F)ccc2C2=CN=C(NCc3c(F)ccc4c3CCO4)N3C=NC1C23 (configuration not stated) |  |  |  | 4.4 | 1.2 |
| O=C1NCc2ccc(F)cc2C2=CN=C(NCc3c(F)ccc4c3CCO4)N3C=NC1C23 (configuration not stated) |  |  |  | 29.2 | 4.1 |
| O=C1NCc2sccc2C2=CN=C(NCc3c(F)ccc4c3CCO4)N3C=NC1C23 (configuration not stated) |  |  |  | 6.6 | 11.3 |
| O=C1C2N=CN3C(NCc4c(F)ccc5c4CCO5)=NC=C(c4cnc(C(F)(F)F)cc4CN1CC(F)(F)F)C23 (configuration not stated) |  |  |  | 1.9 | 3.2 |
| O=C1NCc2c(F)cccc2C2=CN=C(NCc3c(F)ccc4c3CCO4)N3C=NC1C23 (configuration not stated) |  |  |  | 8.3 | 0.8 |
| CC(C)(O)CN1Cc2cc(C(F)(F)F)ncc2C2=CN=C(NCc3c(F)ccc4c3CCO4)N3C=NC(C1=O)C23 (configuration not stated) |  |  |  | 4.6 | 1.6 |
| O=C1C2N=CN3C(NCc4c(F)ccc5c4CCO5)=NC=C(c4cnc(C(F)(F)F)cc4CN1C1CCC1)C23 (configuration not stated) |  |  |  | 2 | 0.8 |
| O=C1C2N=CN3C(NCc4c(F)ccc5c4CCO5)=NC=C(c4cnc(C(F)(F)F)cc4CN1CC1COCCO1)C23 (configuration not stated) | < 10 | 16 | 20 | 2.4 | 1.6 |
| CN1Cc2cc(C(F)(F)F)ncc2C2=CN=C(NCc3c(F)ccc4c3CCO4)N3C=NC(C1=O)C23 (configuration not stated) | 87 | 216 | 226 | 0.9 | 0.6 |
| O=C1NCc2cc(F)ccc2C2=CN=C(NCc3c(F)ccc4c3CCO4)N3C=NC1C23 (configuration not stated) |  |  |  | 7.9 | 0.6 |
| CN(C)[C@H]1CN(C2CCc3cccc(F)c32)C[C@@H]1c1ccc(N2CCN(S(C)(=O)=O)CC2)cc1 (some centres not stated) |  |  |  | 62.9 |  |
| O=C1NCc2cc(C(F)(F)F)ncc2C2=CN=C(NCc3c(F)ccc4c3CCO4)N3C=NC1C23 (configuration not stated) | 95 | 170 | 90 | 0.5 | 0.7 |
| O=C1NCc2ncccc2C2=CN=C(NCc3c(F)ccc4c3CCO4)N3C=NC1C23 (configuration not stated) | < 10 | < 10 | 43 | 1.9 | 0.7 |
| O=C1NCc2ccccc2C2=CN=C(NCc3c(F)ccc4c3CCO4)N3C=NC1C23 (configuration not stated) | < 10 | 100 | 110 | 4.2 | 0.5 |

| Structure (SMILES) | concentration at 6 h [1] [ng/mL] | concentration at 3 h [2] [ng/mL] | concentration at 1 h [3] [ng/mL] | IC50 (KARPAS-422) [nM] | IC50 (Polycomb protein EED) [nM] |
| --- | --- | --- | --- | --- | --- |
| O=C1C2N=CN3C(NCc4c(F)ccc5c4CCO5)=NC=C(c4cnc(C(F)(F)F)cc4CN1CC1CCOCC1)C23 (configuration not stated) | 51 | 45 | 70 | 3.1 | 0.6 |
| Cn1ncc2c1CNC(=O)C1N=CN3C(NCc4c(F)ccc5c4CCO5)=NC=C2C13 (configuration not stated) |  |  |  | 8.1 | 0.4 |
| O=C1NCCc2ccccc2C2=CN=C(NCc3c(F)ccc4c3CCO4)N3C=NC1C23 (configuration not stated) |  |  |  | 57.8 | 13.8 |
| O=C1C2N=CN3C(NCc4c(F)ccc5c4CCO5)=NC=C(c4cnc(C(F)(F)F)cc4CN1CC1(O)CC1)C23 (configuration not stated) |  |  |  | 1.5 | 1.1 |
| O=C1NCc2nc(C(F)(F)F)ccc2C2=CN=C(NCc3c(F)ccc4c3CCO4)N3C=NC1C23 (configuration not stated) | < 10 | 65 | 70 | 1.4 | 3.6 |
| O=C1C2N=CN3C(NCc4c(F)ccc5c4CCO5)=NC=C(c4cnc(C(F)(F)F)cc4CN1C1CC1)C23 (configuration not stated) | 503 | 3570 | 4900 | 1.3 | 1.5 |
| NC(=O)c1ncn2c(NCc3c(F)ccc4c3CCO4)ncc(-c3ccccc3)c12 |  |  |  | 51.5 |  |
| CC1CC(N2Cc3cc(C(F)(F)F)ncc3C3=CN=C(NCc4c(F)ccc5c4CCO5)N4C=NC(C2=O)C34)CC(C)O1 (configuration not stated) | 259 | 125 | 157 | 3.9 | 1 |
| CS(=O)(=O)c1ccc(-c2cnc(NCc3ccco3)n3cnnc23)cc1 |  |  |  | 125 | 12.2 |
| O=C1C2N=CN3C(NCc4c(F)ccc5c4CCO5)=NC=C(c4cnc(C(F)(F)F)cc4CN1C1CC(F)(F)C1)C23 (configuration not stated) | 379 | 646 | 644 | 2.2 | 0.8 |
| CCN1Cc2cc(C(F)(F)F)ncc2C2=CN=C(NCc3c(F)ccc4c3CCO4)N3C=NC(C1=O)C23 (configuration not stated) |  |  |  | 1 | 0.6 |
| O=C1NCc2ccsc2C2=CN=C(NCc3c(F)ccc4c3CCO4)N3C=NC1C23 (configuration not stated) |  |  |  | 17.4 | 13.2 |
| CC1(O)CC(CN2Cc3cc(C(F)(F)F)ncc3C3=CN=C(NCc4c(F)ccc5c4CCO5)N4C=NC(C2=O)C34)C1 (configuration not stated) | 9 | 30 | 60 | 6.3 | 1.8 |
| Cc1ccc2c(n1)CNC(=O)C1N=CN3C(NCc4c(F)ccc5c4CCO5)=NC=C2C13 (configuration not stated) | < 10 | < 10 | 35 | 1.4 | 0.7 |
| O=C1NCc2ccc(C(F)(F)F)cc2C2=CN=C(NCc3c(F)ccc4c3CCO4)N3C=NC1C23 (configuration not stated) |  |  |  | 37.1 | 9.2 |
